{"source": "patent US20030220415A1", "about": "“Heterocyclic amine diol compounds and their biocidal derivatives” (priority 2002, published 2003)", "system": "Staphylococcus aureus bacteria", "settings": "1957 mg/L solution, chlorine-demand-free water pH 7, ambient temperature", "note": "Where two headings read alike, the source gives them in different places."}
{"smiles": "CC1(C)C(=O)N(CN(CCO)CCO)C(=O)N1Cl", "note": "[chlorinated heterocyclic amine diol, 1-chloro-3-[1-bis(N,N-2-hydroxyethyl)aminomethyl]-5,5-dimethyl-1,3-imidazolidin-2,4-dione]", "values": [{"measurement": "inactivation of Staphylococcus aureus", "setting": "contact time 30 min", "result": "> 5", "unit": "logs"}, {"measurement": "inactivation of Staphylococcus aureus", "setting": "contact time 60 min", "result": "> 5", "unit": "logs"}]}
